According to ChEMBL document CHEMBL1201862, “PubChem BioAssay data set” (2004):
Where a name gives a salt, the structure may show the parent alone.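 Growth conditions: 96-well plates. Treatment: test compound, 48 hours, 5 concentrations. Analysis: linear interpolation between bracketing concentrations; unreached endpoints set to highest concentration. At the GI50, growth is halved.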 Active and inactive are the calls of the source. Rule as the data show it: active = GI50 up to about 1.1 µM and inactive = higher.

Columns and labels:
Test in all cases: inhibition of tumour cell growth, NCI panel, 48 h
EKVX = test system: EKVX
SNB-75 = test system: SNB-75
RPMI-8226 = test system: RPMI-8226
OVCAR-4 = test system: OVCAR-4
UACC-257 = test system: UACC-257
Hs-578T = test system: Hs-578T
CCRF-CEM = test system: CCRF-CEM
OVCAR-5 = test system: OVCAR-5
HOP-62 = test system: HOP-62
SK-OV-3 = test system: SK-OV-3
SK-MEL-5 = test system: SK-MEL-5
SF-295 = test system: SF-295
NCI-H522 = test system: NCI-H522
NCI-H226 = test system: NCI-H226
MCF7 = test system: MCF7
UACC-62 = test system: UACC-62
UO-31 = test system: UO-31
ACHN = test system: ACHN
MDA-MB-231 = test system: MDA-MB-231
786-0 = test system: 786-0

Row | SMILES | GI50 (EKVX) | GI50 (SNB-75) | GI50 (RPMI-8226) | GI50 (OVCAR-4) | GI50 (UACC-257) | GI50 (Hs-578T) | GI50 (CCRF-CEM) | GI50 (OVCAR-5) | GI50 (HOP-62) | GI50 (SK-OV-3) | GI50 (SK-MEL-5) | GI50 (SF-295) | GI50 (NCI-H522) | GI50 (NCI-H226) | GI50 (MCF7) | GI50 (UACC-62) | GI50 (UO-31) | GI50 (ACHN) | GI50 (MDA-MB-231) | GI50 (786-0)
1 | CCCCCCn1c(SC)nc(COC(=O)NC)c1COC(=O)NC | 13.9 µM (inactive) | 14.6 µM (inactive) | 22.4 µM (inactive) | 9.57 µM (inactive) | 19.4 µM (inactive) | 20.4 µM (inactive) | > 10 µM (inactive) | 19.9 µM (inactive) | 19.6 µM (inactive) | 19 µM (inactive) | 16.6 µM (inactive) | 20.2 µM (inactive) | 11.4 µM (inactive) | 17.2 µM (inactive) | 20.1 µM (inactive) | 14.8 µM (inactive) | 16.9 µM (inactive) | 16.6 µM (inactive) | 17.6 µM (inactive) | 15.3 µM (inactive)
2 | N=C(N)c1ccc(-c2ccc(-c3ccc(C(=N)N)cc3)o2)cc1 [FURAMIDINE HYDROCHLORIDE] | 28.4 µM (inactive) | 42 µM (inactive) | 18.6 µM (inactive) | > 100 µM (inactive) | 27.9 µM (inactive) | 21.4 µM (inactive) | 24.9 µM (inactive) | 18.9 µM (inactive) | 29 µM (inactive) | > 100 µM (inactive) | 11.9 µM (inactive) | 41.4 µM (inactive) | 24.8 µM (inactive) | 69.2 µM (inactive) | 17.5 µM (inactive) | 25.6 µM (inactive) | 15.8 µM (inactive) | 39.6 µM (inactive) | > 100 µM (inactive) | 23.2 µM (inactive)
3 | C=C1CC(COc2ccc3c(C)c(Cl)c(=O)oc3c2)(c2ccccc2)OC1=O (centres undefined) | 10.5 µM (inactive) | 3.47 µM (inactive) | 0.442 µM (active) | 1.67 µM (inactive) | 1.61 µM (inactive) | 5.58 µM (inactive) | 0.302 µM (active) | 12.4 µM (inactive) | 7.03 µM (inactive) | 5.92 µM (inactive) | 1.74 µM (inactive) | 7.13 µM (inactive) | 1.14 µM (inactive) | 2.34 µM (inactive) | 1.08 µM (active) | 1.74 µM (inactive) | 3.33 µM (inactive) | 2.86 µM (inactive) | 3.78 µM (inactive) | 1.51 µM (inactive)
4 | Cn1c(N)c(/C=C/C(=O)Oc2ccccc2)c(=O)n(C)c1=O | > 100 µM (inactive) | 24.2 µM (inactive) | > 100 µM (inactive) | > 100 µM (inactive) | > 100 µM (inactive) | 36 µM (inactive) | > 100 µM (inactive) | > 100 µM (inactive) | 19.1 µM (inactive) | 56.5 µM (inactive) | > 100 µM (inactive) | 33.7 µM (inactive) | > 100 µM (inactive) | 47.4 µM (inactive) | 47.9 µM (inactive) | > 100 µM (inactive) | 49.7 µM (inactive) | 50.7 µM (inactive) | > 100 µM (inactive) | 78.9 µM (inactive)
5 | O=C(O[C@H]1[C@@H](O)[C@H](n2cnc3c(Cl)ncnc32)O[C@@H]1COC(c1ccccc1)(c1ccccc1)c1ccccc1)c1ccccc1 | 14.8 µM (inactive) | 45.4 µM (inactive) | 2.25 µM (inactive) | 30.3 µM (inactive) | 14.7 µM (inactive) | 2.9 µM (inactive) | 3.55 µM (inactive) | > 100 µM (inactive) | 16.7 µM (inactive) | 71 µM (inactive) | 8.47 µM (inactive) | 19.8 µM (inactive) | 5.09 µM (inactive) | 13 µM (inactive) | 4.91 µM (inactive) | 39.5 µM (inactive) | 1.27 µM (inactive) | 15.7 µM (inactive) | 21.2 µM (inactive) | 14.9 µM (inactive)
6 | Cc1cc2nc3ccc(N(C)C)cc3[s+]c2cc1N [TOLONIUM CHLORIDE] | 4.48 µM (inactive) | 11 µM (inactive) | 1.48 µM (inactive) | 3.35 µM (inactive) | 1.37 µM (inactive) | 5.12 µM (inactive) | 1.16 µM (inactive) | 9.73 µM (inactive) | 8.97 µM (inactive) | 9.71 µM (inactive) | 0.641 µM (active) | 3.62 µM (inactive) | 2.62 µM (inactive) | 8.22 µM (inactive) | 2.3 µM (inactive) | 1.89 µM (inactive) | 11 µM (inactive) | 8.71 µM (inactive) | 2.41 µM (inactive) | 5.22 µM (inactive)
7 | CC(C)CCC/C(CBr)=C(\Cl)CCl | 16.6 µM (inactive) | 1.95 µM (inactive) | 0.948 µM (active) | 1.48 µM (inactive) | 2.13 µM (inactive) | 2.45 µM (inactive) | 0.123 µM (active) | 15.1 µM (inactive) | 8.02 µM (inactive) | 7.82 µM (inactive) | 1.95 µM (inactive) | 13.3 µM (inactive) | 0.15 µM (active) | 7.89 µM (inactive) | 4.08 µM (inactive) |  | 3.27 µM (inactive) | 11.2 µM (inactive) | 2.81 µM (inactive) | 1.85 µM (inactive)
